Consider 2 compounds from PMC6398150 (Journal of Medicinal Chemistry, 2019).

Type in all cases: biochemical
The target in assay [1] is T1, group V secreted PLA2 (sPLA2) (Homo sapiens, UniProt P39877).
T1 sequence (P39877 21-138): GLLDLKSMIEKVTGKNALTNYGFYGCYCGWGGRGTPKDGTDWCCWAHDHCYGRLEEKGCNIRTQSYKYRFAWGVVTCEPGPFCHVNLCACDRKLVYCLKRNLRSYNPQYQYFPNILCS
Nature of the assay: Lipidomics LC-MS mixed micelle PLA2 assay, sPLA2.

Assay [2] deals with T1, group V secreted PLA2 (sPLA2). Nature of the assay: Traditional radioactive assay.
The target of assay [3] is group VIA calcium-independent (iPLA2) (Homo sapiens, UniProt O60733). Put plainly: Lipidomics LC-MS mixed micelle PLA2 assay, iPLA2. The conditions noted are these: for IC50: IC50, single phospholipid PAPC.
group VIA calcium-independent (iPLA2), sequence (O60733 whole entry): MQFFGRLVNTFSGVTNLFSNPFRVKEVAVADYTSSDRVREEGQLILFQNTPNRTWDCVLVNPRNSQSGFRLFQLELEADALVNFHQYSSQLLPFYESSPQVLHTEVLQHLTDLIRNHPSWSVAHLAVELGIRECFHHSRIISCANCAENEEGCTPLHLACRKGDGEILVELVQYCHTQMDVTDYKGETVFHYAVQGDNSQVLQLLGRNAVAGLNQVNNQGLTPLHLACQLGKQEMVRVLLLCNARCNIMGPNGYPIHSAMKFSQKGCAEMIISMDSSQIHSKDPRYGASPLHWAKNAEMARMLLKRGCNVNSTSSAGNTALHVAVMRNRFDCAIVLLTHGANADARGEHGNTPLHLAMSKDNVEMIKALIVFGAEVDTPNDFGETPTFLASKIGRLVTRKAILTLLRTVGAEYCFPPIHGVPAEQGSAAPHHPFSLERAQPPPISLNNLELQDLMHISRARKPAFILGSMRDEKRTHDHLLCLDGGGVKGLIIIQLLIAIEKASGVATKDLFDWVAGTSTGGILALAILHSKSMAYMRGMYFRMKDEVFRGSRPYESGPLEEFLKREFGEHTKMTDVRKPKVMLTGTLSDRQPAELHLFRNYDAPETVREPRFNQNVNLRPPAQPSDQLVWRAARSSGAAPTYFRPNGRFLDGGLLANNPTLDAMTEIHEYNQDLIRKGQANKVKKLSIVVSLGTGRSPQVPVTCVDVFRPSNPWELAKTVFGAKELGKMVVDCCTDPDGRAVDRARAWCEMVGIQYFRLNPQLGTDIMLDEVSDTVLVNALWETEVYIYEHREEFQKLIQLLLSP

Turning to `CCc1c(C(=O)C(N)=O)c2c(OCC(=O)O)cccc2n1Cc1ccccc1` [Ly315920], the IC50 came out at 104 nM in assay [1] (IC50, single phospholipid PAPC, 16:0 LPC detected, positive ion mode); 18000 nM in assay [1] (IC50, single phospholipid PAPG, 16:0 LPG detected, positive ion mode); 22000 nM in assay [1] (IC50, single phospholipid PAPG, free AA detected, negative ion mode); 56 nM in assay [2]. In addition, the “XI(50)” value in assay [1] (single phospholipid PAPC, free AA detected, negative ion mode) came to 0.0002.

On to `CCCCCCCCSCC(=O)C(F)(F)F` [OTFP], for which the IC50 is 58 nM in assay [3] (16:0 LPC detected, positive ion mode) and 34 nM in assay [3] (free AA detected, negative ion mode). For the same compound, the “greater inhibitor potency with PAPC as substrate versus PLPC” value in assay [3] (PAPC versus PLPC substrate) is on record as “approximately twofold”.

As a reminder, the IC50 is the concentration needed to halve the response being measured.
